Twelve compounds from ChEMBL document CHEMBL1143446, “Azaflavones compared to flavones as ligands to the benzodiazepine binding site of brain GABA(A) receptors” (Bioorg Med Chem Lett, 2008) can be followed below.

Test [1] addresses GABA-A receptor; alpha-2/beta-3/gamma-2 (Rattus norvegicus). Description: Displacement of [3H]flumazenil in rat GABAA alpha-2-beta-3-gamma-2 receptor expressed in HEK293 cells.
The target in test [2] is GABA-A receptor; alpha-1/beta-3/gamma-2 (Rattus norvegicus). The test can be described thus: Displacement of [3H]flumazenil in rat GABAA alpha-1-beta-3-gamma-2 receptor expressed in HEK293 cells.
Test [3] concerns the target Gamma-aminobutyric acid receptor subunit alpha-3 (Rattus norvegicus, UniProt P18508+P20236+P63079). Description: Displacement of [3H]flumazenil in rat GABAA alpha-3-beta-3-gamma-2 receptor expressed in HEK293 cells. It counts as cell-based.
For test [4], the target named is GABA A receptor alpha-5/beta-3/gamma-2 (Rattus norvegicus, UniProt P18508+P19969+P63079). Description: Displacement of [3H]flumazenil in rat GABAA alpha-5-beta-3-gamma-2 receptor expressed in HEK293 cells. The class given is cell-based. (Displacement assays read how much labelled ligand stays bound in the presence of the test substance.)
GABA A receptor alpha-5/beta-3/gamma-2, sequence (P18508 whole entry): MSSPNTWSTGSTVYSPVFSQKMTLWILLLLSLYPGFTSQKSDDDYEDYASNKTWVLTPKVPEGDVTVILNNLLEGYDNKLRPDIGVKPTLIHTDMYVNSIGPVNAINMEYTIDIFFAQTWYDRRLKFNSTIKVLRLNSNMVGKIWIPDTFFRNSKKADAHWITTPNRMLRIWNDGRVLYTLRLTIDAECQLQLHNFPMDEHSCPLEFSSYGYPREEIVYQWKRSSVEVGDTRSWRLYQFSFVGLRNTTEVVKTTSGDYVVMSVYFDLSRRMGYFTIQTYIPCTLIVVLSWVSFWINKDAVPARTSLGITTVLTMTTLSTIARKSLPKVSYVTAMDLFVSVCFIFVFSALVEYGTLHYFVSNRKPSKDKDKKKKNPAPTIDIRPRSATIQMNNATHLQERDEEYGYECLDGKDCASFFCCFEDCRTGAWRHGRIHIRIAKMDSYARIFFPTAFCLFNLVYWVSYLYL
GABA A receptor alpha-5/beta-3/gamma-2, sequence (P19969 whole entry): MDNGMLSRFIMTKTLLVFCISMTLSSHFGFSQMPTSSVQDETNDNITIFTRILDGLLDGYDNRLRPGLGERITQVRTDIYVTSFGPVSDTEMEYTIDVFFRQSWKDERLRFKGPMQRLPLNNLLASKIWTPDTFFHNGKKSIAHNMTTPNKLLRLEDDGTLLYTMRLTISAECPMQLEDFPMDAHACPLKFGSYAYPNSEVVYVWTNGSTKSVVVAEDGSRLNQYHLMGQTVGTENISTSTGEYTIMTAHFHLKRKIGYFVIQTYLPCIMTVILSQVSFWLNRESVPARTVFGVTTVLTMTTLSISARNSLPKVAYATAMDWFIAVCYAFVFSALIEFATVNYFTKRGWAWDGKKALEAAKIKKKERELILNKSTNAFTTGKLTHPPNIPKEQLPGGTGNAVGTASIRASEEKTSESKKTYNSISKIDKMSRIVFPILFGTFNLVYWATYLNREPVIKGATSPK
GABA A receptor alpha-5/beta-3/gamma-2, sequence (P63079 whole entry): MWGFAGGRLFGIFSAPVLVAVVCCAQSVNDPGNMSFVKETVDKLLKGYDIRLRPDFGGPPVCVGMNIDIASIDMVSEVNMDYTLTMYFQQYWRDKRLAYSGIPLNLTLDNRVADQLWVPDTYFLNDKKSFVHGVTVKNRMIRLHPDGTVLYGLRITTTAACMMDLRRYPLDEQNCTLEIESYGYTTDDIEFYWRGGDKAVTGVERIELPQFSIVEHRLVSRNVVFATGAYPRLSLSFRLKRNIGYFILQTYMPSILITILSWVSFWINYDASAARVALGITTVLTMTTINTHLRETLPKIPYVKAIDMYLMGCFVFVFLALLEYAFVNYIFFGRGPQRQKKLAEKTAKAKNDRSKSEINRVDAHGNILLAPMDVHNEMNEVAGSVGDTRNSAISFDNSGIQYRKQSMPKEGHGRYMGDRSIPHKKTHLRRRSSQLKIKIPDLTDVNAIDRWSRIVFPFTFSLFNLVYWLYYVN
The nature of test [5]: Displacement of [3H]flumazenil from GABAA in rat cortical tissue.
Test [6] is filed under the species Rattus norvegicus. Description: Selectivity ratio of Ki for rat GABAA alpha-3-beta-3-gamma-2 receptor to Ki for GABAA alpha-1-beta-3-gamma-2 receptor.
The species named for test [7] is Rattus norvegicus. The test can be described thus: Selectivity ratio of Ki for rat GABAA alpha-2-beta-3-gamma-2 receptor to Ki for GABAA alpha-1-beta-3-gamma-2 receptor.

Gamma-aminobutyric acid receptor subunit alpha-3, sequence (P20236 whole entry, one chain of several): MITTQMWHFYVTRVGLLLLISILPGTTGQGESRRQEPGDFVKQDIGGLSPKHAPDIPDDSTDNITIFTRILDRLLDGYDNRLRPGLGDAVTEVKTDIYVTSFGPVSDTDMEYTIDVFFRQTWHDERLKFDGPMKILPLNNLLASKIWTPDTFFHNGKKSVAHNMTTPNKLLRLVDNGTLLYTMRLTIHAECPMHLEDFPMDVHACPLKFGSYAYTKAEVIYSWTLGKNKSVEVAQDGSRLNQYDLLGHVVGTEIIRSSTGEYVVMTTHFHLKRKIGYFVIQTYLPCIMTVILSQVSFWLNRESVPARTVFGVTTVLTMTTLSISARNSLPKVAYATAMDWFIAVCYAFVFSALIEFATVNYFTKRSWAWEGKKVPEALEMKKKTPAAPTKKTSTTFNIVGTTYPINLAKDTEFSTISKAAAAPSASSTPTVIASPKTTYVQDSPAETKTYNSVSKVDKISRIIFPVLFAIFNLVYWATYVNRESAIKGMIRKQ

As a reminder, the Ki is a measure of affinity in units of concentration, obtained from inhibition or displacement. `Cc1ccc2nc(-c3cc(Br)ccc3O)cc(O)c2c1`: the results for the inhibitory constant (Ki) in test [1], in test [2] and in test [3] were 0.12 µM, 0.039 µM and 0.099 µM, respectively.
For `Cc1ccc2oc(-c3cc(Cc4ccccc4)ccc3O)cc(=O)c2c1`, the Ki in test [1] was 0.019 µM; in test [2] it was 0.0008 µM; in test [4] it was 0.0024 µM; in test [3], 0.011 µM; in test [5], 0.0006 µM.
`COc1ccc(Br)cc1-c1cc(=O)c2cc(C)ccc2[nH]1` had a Ki in test [5] of 0.73 µM.
On the same count and under the same terms, for `CCc1ccc2[nH]c(-c3ccccc3)cc(=O)c2c1` the value was 1.2 µM.
On to `Cc1ccc2[nH]c(-c3cc(Br)ccc3O)cc(=O)c2c1`, for which the Selectivity ratio in test [6] turned out to be 8; in test [7], 5. Also, the affinity in test [5], expressed as Ki, was 0.022 µM.
In turn, `CCc1ccc2oc(-c3ccccc3)cc(=O)c2c1` yielded a Ki in test [5] of 0.18 µM.
Still for that read-out and setting: the value for `Cc1ccc2nc(-c3cc(Cc4ccccc4)ccc3O)cc(N3CCOCC3)c2c1` was 0.4 µM; that for `Cc1ccc2nc(-c3cc(Br)ccc3O)cc(N3CCOCC3)c2c1` was 0.84 µM.
Still for that read-out and setting: for `COc1ccc(Br)cc1-c1cc(=O)c2cc(C)ccc2o1` the value was above 1.5 µM.
In the case of `Cc1ccc2c(c1)c(=O)cc(-c1cc(Br)ccc1O)n2C`, the Selectivity ratio in test [6] came out at 8; in test [7], 5. Affinity in test [5] was put at a Ki of 1.1 µM.
In the same order, the values of `Cc1ccc2oc(-c3cc(Br)ccc3O)cc(=O)c2c1` are 8, 5 and 0.0009 µM.
For the compound `Cc1ccc2[nH]c(-c3cc(Cc4ccccc4)ccc3O)cc(=O)c2c1`, the inhibitory constant (Ki) in test [1] was determined as 0.018 µM; in test [2] it was 0.0012 µM; in test [4], 0.0073 µM; in test [3], 0.031 µM; in test [5], 0.002 µM. Moreover, the Selectivity ratio in test [6] was 8; in test [7] it was 5.
